Non-standard residues stand in square brackets, D forms with d. Residues, ends and D or L forms follow the SMILES beside them. ξ: configuration not given here. *: point of attachment. Palmitoyl = CCCCCCCCCCCCCCCC(=O)*; aThr = C[C@H](O)[C@H](N)C(=O)O; ξV = CC(C)C(N)C(=O)O
Tests used:
diabetic wound = diabetic wound model; cited from earlier work
[1] = test system: full thickness injury, atopic dermatitis; conditions: rodent models of full thickness injury and atopic dermatitis; cited from earlier work
ERK receptor = conditions: cited from earlier work
dermal wound = conditions: rat full thickness excision model; cited from earlier work
full thickness burn = assay: burn injury murine model, wound closure; type: in vivo; conditions: mouse, 3 days and 7 days post treatment, one-way ANOVA, p<0.05
Experimental: The benefits of, and potential for, regeneration of the biocompatible and bioactive PA nanofiber scaffold was assessed in a mouse burn injury model. […] (See FIGS. 5 and 6). A 1×1 cm diameter steel billet was heated to 100° C. in a dry heat bath. Mice were anesthetized using isoflurane throughout the procedures. After successful anesthesia had been achieved, mice were clipped circumferentially on their trunks/dorsum and prepped with betadine. Burn injury was accomplished by applying the previously heated billet to the dorsum of each animal for 10 seconds. A total of 6 applications of the rod (3 on each side of the midline back) produced an approx. 20% total body surface area (TBSA) full thickness burn. Mice were further wrapped with a self-adherent wrap to protect the wound. Mice were resuscitated using 1.0 mL i.p. saline (which included 0.03 mL Buprenex SR and 0.06 mL Meloxicam SR) and placed onto warming pads until full recovery from anesthesia was determined. 8 hours post-burn, they received a 2nd bolus of 1 mL i.p. fluid. […] Healing was assessed following a single application. […] Quantification of wound healing was accomplished by digital image planimetry with ImageJ at 3 days, and 7 days post treatment, with representative images of wound healing at day 15 post treatment also being provided.

receptor of EPO = biological target: T1, receptor of EPO (Homo sapiens, UniProt P19235); conditions: cyclized through the cysteine residues; cited from earlier work
T1 sequence (P19235 25-508): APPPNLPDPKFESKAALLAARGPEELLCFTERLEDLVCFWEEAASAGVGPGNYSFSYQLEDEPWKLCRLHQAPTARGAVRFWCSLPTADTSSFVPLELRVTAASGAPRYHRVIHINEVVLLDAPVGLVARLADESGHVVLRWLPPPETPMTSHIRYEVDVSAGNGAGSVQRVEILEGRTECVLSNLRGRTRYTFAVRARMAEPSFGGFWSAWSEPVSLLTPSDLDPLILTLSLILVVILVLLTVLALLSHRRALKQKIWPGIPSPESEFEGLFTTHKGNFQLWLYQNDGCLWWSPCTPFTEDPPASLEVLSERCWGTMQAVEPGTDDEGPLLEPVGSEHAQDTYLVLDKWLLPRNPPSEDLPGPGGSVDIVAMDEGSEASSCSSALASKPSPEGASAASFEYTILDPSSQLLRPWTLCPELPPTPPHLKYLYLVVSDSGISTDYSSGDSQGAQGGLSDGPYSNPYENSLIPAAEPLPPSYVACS

erythropoiesis = conditions: mice; cited from earlier work

N=C(N)NCCC[C@H](NC(=O)[C@@H](Cc1cnc[nH]1)NC(=O)[C@@H](N)CCC(N)=O)C(=O)N[C@H](CCC(=O)O)C(=O)N[C@@H](CC(=O)O)C(=O)NCC(=O)N[C@@H](CO)C(=O)O [QHREDGS, QHREDGS (SEQ ID NO.4)]
wound closure (diabetic wound): significantly accelerate wound closure

C[C@H](O)[C@H](NC(=O)[C@@H](CCCNC(=N)N)NC(=O)CNC(=O)[C@@H](CCC(=O)O)NC(=O)[C@@H](N)CCCNC(=N)N)C(=O)O [REGRT, REGRT (SEQ ID NO.2)] (H-R[dE]G[dR][aThr]-OH)
wound healing [1]: promotion of wound healing | phosphorylation of the ERK receptor (ERK receptor): effective phosphorylation of the ERK receptor

CC(C)C[C@@H](NC(=O)CNC(=O)[C@@H](Cc1ccc(O)cc1)NC(=O)[C@@H](NC(=O)[C@H](NC(=O)[C@@H](N)CO)C(C)C)C(C)C)C(=O)N[C@@H](CCCNC(=N)N)C(=O)O [SVVYGLR, SVVYGLR (SEQ ID NO.: 3)]
dermal wound healing (dermal wound): effective in promoting dermal wound healing

CCCCCCCCCCCCCCCC(=O)NC(C(=O)N[C@H](C(=O)NCC(=O)N[C@@H](C)C(=O)NCC(=O)N[C@@H](C)C(=O)N[C@H](CCC(=O)O)C(=O)N[C@@H](CCC(=O)O)C(=O)N[C@H](CCC(=O)O)C(N)=O)C(C)C)C(C)C (stereo partly shown) [diluent PA] (Palmitoyl-[ξV]VGAGA[dE]E[dE]-NH2)
wound healing by digital image planimetry, significance vs control (full thickness burn): significant at 7 days

GGTYSCHFGPLTWVCKPQGG (SEQ ID NO.: 1) [EMP1]
activation of the EPO receptor (receptor of EPO): capable of activating the receptor of EPO | erythropoiesis (erythropoiesis): stimulating erythropoiesis

Source: patent US20250249144A1, “PEPTIDE AMPHIPHILE SUPRAMOLECULAR POLYMERS FOR SPRAY DELIVERY AND TISSUE REGENERATION APPLICATIONS” (The University of Southern Mississippi, priority 2024, published 2025)
